Test results as given in ChEMBL document CHEMBL1201862, “PubChem BioAssay data set” (2004).
Calls of active or inactive are those of the source.

What was measured:
[1] = biological target: Cytochrome P450 2D6 (Homo sapiens, UniProt P10635); assay: qHTS Assay for Inhibitors and Substrates of Cytochrome P450 2D6. [Related pubchem assays: 410 ]; type: ADME; settings: read-out: Potency
[2] = biological target: Cytochrome P450 3A4 (Homo sapiens, UniProt P08684); settings: Potency;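 also: confirmatory qHTS run detecting inhibitors and substrates of CYP3A4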
[3] = biological target: Cytochrome P450 2C9 (Homo sapiens, UniProt P11712); settings: Potency
[4] = biological target: T1, Leucine aminopeptidase (Plasmodium falciparum 3D7, UniProt Q8IL11); assay: P. falciparum M17LAP inhibitors, primary screen, biochemical, fluorogenic H-Leu-NHMec substrate, 1536-well (AID 1619); type: functional
T1 sequence (Q8IL11 whole entry): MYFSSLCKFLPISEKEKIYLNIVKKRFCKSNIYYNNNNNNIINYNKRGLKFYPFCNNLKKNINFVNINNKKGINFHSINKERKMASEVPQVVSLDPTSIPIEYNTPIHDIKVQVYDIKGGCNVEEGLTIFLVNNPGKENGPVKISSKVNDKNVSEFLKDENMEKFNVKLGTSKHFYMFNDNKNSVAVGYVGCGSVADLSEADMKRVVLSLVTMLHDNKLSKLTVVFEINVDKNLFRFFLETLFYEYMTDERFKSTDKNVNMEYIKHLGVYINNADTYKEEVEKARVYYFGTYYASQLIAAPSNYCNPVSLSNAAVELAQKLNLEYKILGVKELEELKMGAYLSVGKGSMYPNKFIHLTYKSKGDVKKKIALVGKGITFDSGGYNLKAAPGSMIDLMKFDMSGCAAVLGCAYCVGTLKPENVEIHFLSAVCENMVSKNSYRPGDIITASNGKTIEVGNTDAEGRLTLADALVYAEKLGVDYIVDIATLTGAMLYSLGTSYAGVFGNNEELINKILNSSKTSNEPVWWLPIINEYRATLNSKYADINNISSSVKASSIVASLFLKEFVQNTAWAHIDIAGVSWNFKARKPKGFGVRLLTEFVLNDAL

[5] = biological target: T2, Insulin-degrading enzyme (Homo sapiens, UniProt P14735); assay: Dose Response: Fluorescence polarization-based cell-based high throughput dose response assay for inhibitors of insulin-degrading enzyme (IDE). [Related pubchem assays: 434962 (Primary screen (IDE inhibitors in singlicate)), 449730 (Counterscreen (Cytotoxicity in triplicate)), 435028 (Confirmation (IDE inhibitors in triplicate)), 434984 (Summary …; type: functional
T2 sequence (P14735 whole entry): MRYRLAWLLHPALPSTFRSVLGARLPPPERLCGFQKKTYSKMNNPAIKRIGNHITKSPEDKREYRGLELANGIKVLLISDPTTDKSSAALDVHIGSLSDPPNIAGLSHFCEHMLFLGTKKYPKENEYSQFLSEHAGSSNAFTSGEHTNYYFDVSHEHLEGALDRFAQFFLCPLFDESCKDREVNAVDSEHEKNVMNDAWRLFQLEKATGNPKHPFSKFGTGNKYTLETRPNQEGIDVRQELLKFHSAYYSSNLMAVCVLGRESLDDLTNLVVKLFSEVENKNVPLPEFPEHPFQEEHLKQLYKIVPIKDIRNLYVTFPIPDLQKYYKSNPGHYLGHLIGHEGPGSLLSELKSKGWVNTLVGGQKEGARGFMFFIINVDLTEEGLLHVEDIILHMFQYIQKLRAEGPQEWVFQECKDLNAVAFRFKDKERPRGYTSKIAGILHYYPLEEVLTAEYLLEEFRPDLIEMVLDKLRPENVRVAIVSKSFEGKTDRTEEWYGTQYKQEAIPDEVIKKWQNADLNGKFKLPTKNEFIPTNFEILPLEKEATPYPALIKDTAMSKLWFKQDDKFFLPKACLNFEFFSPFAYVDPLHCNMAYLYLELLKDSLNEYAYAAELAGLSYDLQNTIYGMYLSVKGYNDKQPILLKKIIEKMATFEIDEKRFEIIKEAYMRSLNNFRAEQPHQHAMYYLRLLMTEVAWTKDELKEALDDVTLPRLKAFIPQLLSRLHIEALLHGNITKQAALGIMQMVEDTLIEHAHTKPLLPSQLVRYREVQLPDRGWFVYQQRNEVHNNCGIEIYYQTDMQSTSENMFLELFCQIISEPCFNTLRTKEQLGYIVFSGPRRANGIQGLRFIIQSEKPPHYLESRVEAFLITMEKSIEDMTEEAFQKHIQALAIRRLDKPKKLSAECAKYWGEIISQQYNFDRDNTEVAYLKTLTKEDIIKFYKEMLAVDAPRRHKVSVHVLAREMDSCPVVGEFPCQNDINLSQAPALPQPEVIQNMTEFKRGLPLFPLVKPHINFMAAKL

[6] = mitochondrial function rescue without frataxin homolog – Friedreich's ataxia, plus single-dose screen, dose response (AID 1465); type: functional;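 also: yeast depleted of Yfh1p frataxin homolog grown on glycerol needing respiration; WST-1 tetrazolium dye reduction as measure of cellular dehydrogenase metabolic activity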
[7] = Counterscreen for IDE inhibitors: Luminescence-based cell-based high throughput dose response assay to identify compounds that are cytotoxic to HEK cells. [Related pubchem assays: 434962 (Primary screen (IDE inhibitors in singlicate)), 449730 (Counterscreen (Cytotoxicity in triplicate)), 435028 (Confirmation (IDE inhibitors in triplicate)) …; type: functional; settings: HEK293
[8] = biological target: Trypsin (Sus scrofa, UniProt P00761); assay: trypsin protease activity blockade – biochemical, quenched peptide fluorescence, cherry-pick, selectivity assay for Rce1 protease inhibitor project, dose response (AID 488789)
[9] = biological target: T3, CAAX prenyl protease 2 (Homo sapiens, UniProt Q9Y256); assay: inhibition of Ras-converting CAAX protease Rce1 – biochemical, yeast membranes, quenched-peptide fluorescence, cherry-pick, dose response (AID 588849)
T3 sequence (Q9Y256 whole entry): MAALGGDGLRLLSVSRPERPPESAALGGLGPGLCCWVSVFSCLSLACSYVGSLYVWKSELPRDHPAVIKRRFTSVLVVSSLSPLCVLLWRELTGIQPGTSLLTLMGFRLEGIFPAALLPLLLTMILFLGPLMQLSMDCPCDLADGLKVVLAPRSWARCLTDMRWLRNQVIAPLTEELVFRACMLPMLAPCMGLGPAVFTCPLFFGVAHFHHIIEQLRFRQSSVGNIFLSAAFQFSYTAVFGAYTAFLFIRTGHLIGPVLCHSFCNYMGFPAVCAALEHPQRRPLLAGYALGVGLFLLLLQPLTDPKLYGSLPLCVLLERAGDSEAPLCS

[10] = biological target: CAAX prenyl protease 2 (Saccharomyces cerevisiae S288c, UniProt Q03530); type: biochemical
[11] = biological target: Photoreceptor-specific nuclear receptor (Homo sapiens, UniProt Q9Y5X4); type: functional;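 also: potency for compounds that break the NR2E3 corepressor complex and count as activators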
[12] = biological target: Peroxisome proliferator-activated receptor gamma/Nuclear receptor coactivator 2 (Homo sapiens, UniProt P37231); assay: (§1) TR-FRET dose response biochemical High Throughput Screening assay for agonists of the steroid receptor coactivator 2 (SRC-2) recruitment by the peroxisome proliferator-activated receptor gamma (PPAR gamma): non-selective agonists. [Related pubchem assays: 1297, 1032 ]; type: functional
[13] = biological target: Peroxisome proliferator-activated receptor gamma/Nuclear receptor corepressor 2 (Homo sapiens, UniProt P37231+Q9Y618); type: functional
[14] = biological target: Peroxisome proliferator-activated receptor gamma/Nuclear receptor coactivator 3 (Homo sapiens, UniProt P37231); assay: as §1, with “3 (SRC-3)” for “2 (SRC-2)”, “1301 (Confirmation screen.), 1048 (Primary screen.)]” for “1297, 1032 ]”; type: functional
[15] = biological target: Peroxisome proliferator-activated receptor gamma/Nuclear receptor coactivator 1 (Homo sapiens, UniProt P37231); assay: as §1, with “1 (SRC-1)” for “2 (SRC-2)”, “assays (depositor defined):AID1300, AID1808, AID504735, AID631]” for “assays: 1297, 1032 ]”; type: protein assay
[16] = test system: Vero; assay: viability of Vero cells under compound – cytotoxicity control for flavivirus capping enzyme inhibitors (AID 588742); type: functional; settings: Chlorocebus sabaeus
[17] = biological target: Induced myeloid leukemia cell differentiation protein Mcl-1 (Homo sapiens, UniProt Q07820); type: functional
[18] = biological target: NS3 (Hepatitis C virus, UniProt A3EZJ3); assay: PubChem AID 2173; parameters: species or system Hepacivirus hominis
[19] = test system: Vero; assay: cells; type: functional, cell-based; settings: Chlorocebus sabaeus
[20] = test system: Vero; assay: cells; type: functional; settings: Chlorocebus sabaeus
[21] = biological target: T4, Voltage-gated N-type calcium channel alpha-1B subunit/Amyloid beta A4 precursor protein-binding family A member 1 (Homo sapiens, UniProt Q00975+Q02410); type: protein assay
[22] = biological target: T4, Voltage-gated N-type calcium channel alpha-1B subunit/Amyloid beta A4 precursor protein-binding family A member 1; type: protein assay; remark: listed apart in the source

Chain of Induced myeloid leukemia cell differentiation protein Mcl-1 (Q07820 whole entry): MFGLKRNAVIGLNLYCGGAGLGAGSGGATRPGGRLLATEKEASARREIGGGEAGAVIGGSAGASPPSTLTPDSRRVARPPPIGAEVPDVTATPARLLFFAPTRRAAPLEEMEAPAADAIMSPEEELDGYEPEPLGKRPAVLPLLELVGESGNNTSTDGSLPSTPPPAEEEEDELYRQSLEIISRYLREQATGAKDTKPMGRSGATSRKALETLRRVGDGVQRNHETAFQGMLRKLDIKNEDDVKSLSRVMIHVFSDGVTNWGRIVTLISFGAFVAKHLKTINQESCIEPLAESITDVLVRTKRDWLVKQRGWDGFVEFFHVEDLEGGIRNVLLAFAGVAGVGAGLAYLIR
T4 sequence (Q00975 whole entry): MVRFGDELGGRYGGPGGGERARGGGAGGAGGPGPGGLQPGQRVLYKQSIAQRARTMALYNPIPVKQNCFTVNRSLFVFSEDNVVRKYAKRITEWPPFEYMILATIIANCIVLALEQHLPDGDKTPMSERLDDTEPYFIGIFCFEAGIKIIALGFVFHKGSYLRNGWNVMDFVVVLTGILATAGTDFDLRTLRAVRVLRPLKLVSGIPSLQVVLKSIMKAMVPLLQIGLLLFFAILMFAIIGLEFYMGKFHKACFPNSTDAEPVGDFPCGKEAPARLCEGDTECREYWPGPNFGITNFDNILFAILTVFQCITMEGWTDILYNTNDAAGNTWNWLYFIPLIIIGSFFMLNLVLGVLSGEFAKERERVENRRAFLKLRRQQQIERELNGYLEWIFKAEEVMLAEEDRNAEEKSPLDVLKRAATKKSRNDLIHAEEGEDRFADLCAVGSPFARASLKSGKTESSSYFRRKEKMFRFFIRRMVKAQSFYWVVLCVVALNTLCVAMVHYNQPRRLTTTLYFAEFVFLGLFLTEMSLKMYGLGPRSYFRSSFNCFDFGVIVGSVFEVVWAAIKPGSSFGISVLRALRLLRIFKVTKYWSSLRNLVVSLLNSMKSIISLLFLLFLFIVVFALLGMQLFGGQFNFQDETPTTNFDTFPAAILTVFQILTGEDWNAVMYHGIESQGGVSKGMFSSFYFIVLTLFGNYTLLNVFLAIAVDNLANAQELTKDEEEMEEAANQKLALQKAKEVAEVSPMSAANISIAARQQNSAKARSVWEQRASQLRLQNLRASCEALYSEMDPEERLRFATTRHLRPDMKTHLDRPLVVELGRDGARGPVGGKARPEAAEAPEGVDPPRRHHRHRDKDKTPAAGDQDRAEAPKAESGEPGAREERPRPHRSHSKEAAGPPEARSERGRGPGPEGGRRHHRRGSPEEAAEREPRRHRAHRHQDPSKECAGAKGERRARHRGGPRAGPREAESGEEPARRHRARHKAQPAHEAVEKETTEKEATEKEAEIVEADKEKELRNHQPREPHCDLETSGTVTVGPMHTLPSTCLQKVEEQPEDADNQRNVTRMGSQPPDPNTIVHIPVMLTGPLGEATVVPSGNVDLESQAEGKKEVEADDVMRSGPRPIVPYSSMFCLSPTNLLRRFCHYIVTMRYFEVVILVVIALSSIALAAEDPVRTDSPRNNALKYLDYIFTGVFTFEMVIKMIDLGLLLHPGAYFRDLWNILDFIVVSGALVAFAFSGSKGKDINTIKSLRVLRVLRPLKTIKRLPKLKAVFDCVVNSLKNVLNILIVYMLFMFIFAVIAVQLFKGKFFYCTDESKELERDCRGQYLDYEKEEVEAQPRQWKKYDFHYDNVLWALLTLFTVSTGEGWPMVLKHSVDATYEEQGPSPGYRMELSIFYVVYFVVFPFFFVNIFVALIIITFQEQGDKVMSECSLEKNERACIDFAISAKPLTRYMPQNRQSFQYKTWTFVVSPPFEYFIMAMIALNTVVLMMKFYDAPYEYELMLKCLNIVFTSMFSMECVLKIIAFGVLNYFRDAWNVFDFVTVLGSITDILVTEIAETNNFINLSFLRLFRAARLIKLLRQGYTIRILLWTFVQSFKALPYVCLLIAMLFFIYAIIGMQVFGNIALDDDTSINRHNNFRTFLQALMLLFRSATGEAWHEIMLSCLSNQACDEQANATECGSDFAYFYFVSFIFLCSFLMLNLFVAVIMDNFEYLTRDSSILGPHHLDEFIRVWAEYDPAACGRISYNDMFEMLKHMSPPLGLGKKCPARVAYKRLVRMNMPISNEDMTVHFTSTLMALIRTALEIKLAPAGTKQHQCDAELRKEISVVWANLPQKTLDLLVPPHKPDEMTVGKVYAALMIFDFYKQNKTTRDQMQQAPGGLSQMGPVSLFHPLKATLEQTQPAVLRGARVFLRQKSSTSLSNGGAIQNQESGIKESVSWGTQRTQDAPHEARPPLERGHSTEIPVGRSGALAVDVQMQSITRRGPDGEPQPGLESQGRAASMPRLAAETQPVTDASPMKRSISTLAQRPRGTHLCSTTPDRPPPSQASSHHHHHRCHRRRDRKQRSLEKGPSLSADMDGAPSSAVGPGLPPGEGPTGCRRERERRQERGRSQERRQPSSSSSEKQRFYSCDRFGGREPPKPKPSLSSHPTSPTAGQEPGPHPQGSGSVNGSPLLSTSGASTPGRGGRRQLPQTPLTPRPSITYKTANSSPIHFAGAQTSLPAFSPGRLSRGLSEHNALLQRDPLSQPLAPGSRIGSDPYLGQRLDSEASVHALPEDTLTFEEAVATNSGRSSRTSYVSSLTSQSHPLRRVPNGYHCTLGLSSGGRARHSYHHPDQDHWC
T4 sequence (Q02410 whole entry): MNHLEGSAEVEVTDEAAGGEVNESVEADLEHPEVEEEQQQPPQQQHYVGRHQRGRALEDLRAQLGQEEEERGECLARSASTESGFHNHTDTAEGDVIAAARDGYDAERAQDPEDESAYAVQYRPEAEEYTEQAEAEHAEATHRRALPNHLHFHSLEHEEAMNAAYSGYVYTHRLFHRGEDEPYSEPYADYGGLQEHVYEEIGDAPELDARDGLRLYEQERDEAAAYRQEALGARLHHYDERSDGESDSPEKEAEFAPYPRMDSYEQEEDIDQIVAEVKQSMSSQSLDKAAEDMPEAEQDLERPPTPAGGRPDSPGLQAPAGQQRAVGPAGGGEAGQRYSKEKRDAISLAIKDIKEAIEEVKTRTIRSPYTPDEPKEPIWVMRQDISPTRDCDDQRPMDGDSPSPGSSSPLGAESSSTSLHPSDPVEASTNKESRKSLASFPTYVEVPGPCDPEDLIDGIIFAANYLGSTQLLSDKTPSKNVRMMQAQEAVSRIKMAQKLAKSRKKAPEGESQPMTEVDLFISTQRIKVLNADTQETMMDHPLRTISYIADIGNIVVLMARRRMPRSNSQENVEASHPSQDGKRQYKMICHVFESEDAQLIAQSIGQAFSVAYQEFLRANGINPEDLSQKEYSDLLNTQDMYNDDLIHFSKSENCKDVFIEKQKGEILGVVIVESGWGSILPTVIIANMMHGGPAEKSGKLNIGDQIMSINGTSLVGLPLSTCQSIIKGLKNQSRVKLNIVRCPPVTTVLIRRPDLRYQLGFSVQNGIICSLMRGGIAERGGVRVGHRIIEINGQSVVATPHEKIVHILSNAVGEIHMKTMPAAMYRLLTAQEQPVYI
Chain of Cytochrome P450 2D6 (P10635 whole entry): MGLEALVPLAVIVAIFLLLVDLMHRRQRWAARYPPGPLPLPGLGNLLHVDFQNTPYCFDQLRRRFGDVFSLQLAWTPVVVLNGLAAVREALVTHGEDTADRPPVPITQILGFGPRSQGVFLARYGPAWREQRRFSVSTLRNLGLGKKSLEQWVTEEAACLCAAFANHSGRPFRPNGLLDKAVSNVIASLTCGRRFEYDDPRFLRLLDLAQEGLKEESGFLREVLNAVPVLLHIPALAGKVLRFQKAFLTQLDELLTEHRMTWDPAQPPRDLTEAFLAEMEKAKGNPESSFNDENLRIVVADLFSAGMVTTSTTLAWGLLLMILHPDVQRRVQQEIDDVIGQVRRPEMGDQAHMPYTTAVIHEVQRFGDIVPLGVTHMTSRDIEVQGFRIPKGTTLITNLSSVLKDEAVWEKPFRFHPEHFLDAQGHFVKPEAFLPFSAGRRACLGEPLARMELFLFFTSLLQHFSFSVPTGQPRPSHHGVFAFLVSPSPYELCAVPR
Chain of Trypsin (P00761 whole entry): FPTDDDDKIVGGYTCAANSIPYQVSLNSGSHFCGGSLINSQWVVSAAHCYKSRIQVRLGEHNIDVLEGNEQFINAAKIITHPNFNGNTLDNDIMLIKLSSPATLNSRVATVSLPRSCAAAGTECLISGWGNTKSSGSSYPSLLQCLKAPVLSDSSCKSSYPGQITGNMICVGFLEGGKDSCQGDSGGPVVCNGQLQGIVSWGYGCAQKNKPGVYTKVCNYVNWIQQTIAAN
Chain of Cytochrome P450 3A4 (P08684 whole entry): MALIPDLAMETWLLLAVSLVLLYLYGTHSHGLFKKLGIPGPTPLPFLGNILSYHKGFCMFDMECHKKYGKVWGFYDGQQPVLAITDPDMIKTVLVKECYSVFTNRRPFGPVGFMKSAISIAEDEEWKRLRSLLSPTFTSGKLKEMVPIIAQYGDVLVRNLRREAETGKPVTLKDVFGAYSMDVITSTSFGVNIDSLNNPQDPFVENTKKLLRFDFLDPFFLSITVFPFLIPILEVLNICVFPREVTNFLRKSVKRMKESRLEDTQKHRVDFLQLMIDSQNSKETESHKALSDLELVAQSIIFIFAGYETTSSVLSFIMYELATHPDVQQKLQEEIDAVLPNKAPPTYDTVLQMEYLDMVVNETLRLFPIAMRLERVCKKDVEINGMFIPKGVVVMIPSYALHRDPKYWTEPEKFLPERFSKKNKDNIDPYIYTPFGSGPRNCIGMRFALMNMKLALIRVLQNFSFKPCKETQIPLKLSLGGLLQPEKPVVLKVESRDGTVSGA
Chain of CAAX prenyl protease 2 (Saccharomyces cerevisiae S288c, UniProt Q03530) (Q03530 whole entry): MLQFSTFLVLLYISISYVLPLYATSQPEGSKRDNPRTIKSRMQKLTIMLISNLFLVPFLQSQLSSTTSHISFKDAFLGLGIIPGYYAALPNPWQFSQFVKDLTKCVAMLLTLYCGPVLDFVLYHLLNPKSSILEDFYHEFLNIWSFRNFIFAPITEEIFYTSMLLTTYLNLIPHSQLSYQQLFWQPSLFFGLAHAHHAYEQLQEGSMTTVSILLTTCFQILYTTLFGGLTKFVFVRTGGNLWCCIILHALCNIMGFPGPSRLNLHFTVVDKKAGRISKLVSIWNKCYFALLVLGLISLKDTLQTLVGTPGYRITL

Which results are given for `Nc1c(S(=O)(=O)O)cc(Nc2ccc(Nc3nc(Cl)nc(Nc4ccc(S(=O)(=O)O)cc4)n3)c(S(=O)(=O)O)c2)c2c1C(=O)c1ccccc1C2=O`?
AC50 [1]: 39.8 µM (inconclusive); AC50 [2]: 25.1 µM (inconclusive); AC50 [3]: 39.8 µM (inconclusive)

For `CCN(CC)c1ccc(/C=C(/C#N)C(=O)NC(C)C)o1`, which IC50 [4] is on record?
Its IC50 is 65.8 µM (active).

What about the IC50 [5] of the same compound?
Its IC50 is 13.2 µM (not active).

And the EC50 [6]?
The EC50 was > 100 µM (active).

What about the IC50 [7] of the same compound?
Its IC50 is > 55.7 µM (not active).

Which AC50 [8] does the source give for `Cc1cc(C)cc(Nc2ccc(C(=O)O)cc2N)c1` here?
The AC50 was 2.73 µM (active).

And the AC50 [9]?
Its AC50 is 3.8 µM (active).

And the AC50 [10]?
Its AC50 is 84.5 µM (active).

With `O=C(Nc1nc(-c2cccs2)c(C(=O)C(F)(F)F)s1)c1ccco1` as the compound, how does the IC50 [11] read?
The IC50 was > 39.8 µM (not active).

And the EC50 [12]?
The EC50 was 50 µM (not active).

What about the IC50 [13] of the same compound?
Its IC50 is 2.22 µM (active).

And the EC50 [14]?
Its EC50 is > 79.4 µM (not active).

And the EC50 [15]?
The EC50 was > 79.4 µM (inactive).

With `CN=c1ccc(Br)cc(C(=O)/C=C/c2ccc(Cl)cc2Cl)c1O` as the compound, how does the CC50 [16] read?
The CC50 was 24.7 µM (active).

And the IC50 [17]?
The IC50 was 5.26 µM (active).

What about the IC50 [18] of the same compound?
Its IC50 is 8.09 µM (active).

And the IC50 [19]?
Its IC50 is 12.2 µM (active).

What about the CC50 [20] of the same compound?
Its CC50 is 14.4 µM (active).

With `Cc1ccc(-c2nc3c(c(=O)[nH]c(=O)n3Cc3ccccc3)n2C)o1` as the compound, how does the IC50 [17] read?
The IC50 was 4.71 µM (active).

And the IC50 [21]?
Its IC50 is 6.21 µM (active).

And the IC50 [22]?
The IC50 was 6.07 µM (active).
